Data taken from US20260216294A1, “BETA 2-ADRENERGIC RECEPTOR AGONISTS FOR TREATMENT OR PREVENTION OF MUSCLE WASTING” (ATROGI AB, priority 2023, published 2026).

How the values were obtained:
L6-myotubes [1] = assay: Glucose uptake in differentiated L6-myotubes (Biological Example 2); type: cell-based; details: read-out: Biological example 2 (GU)
How it was run: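 Differentiated L6 myotubes were serum-starved overnight in 0.5% fatty-acid-free BSA and then stimulated with compound or isoprenaline at 1×10^−5 M final. After 1 h 40 min cells were washed and re-dosed in glucose-free medium. Twenty minutes later, uptake of 50 nM ^3H-2-deoxyglucose over 10 min was measured by scintillation counting of NaOH lysates.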

L6-myotubes [2] = assay: Measurement of intracellular cAMP levels in differentiated L6-myotubes (Biological Example 3); type: cell-based; details: 0.25 h
How it was run: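 Serum-starved differentiated L6 myotubes stimulated 15 min with test compound at 1×10^−5 M final (isoprenaline as reference) in HBSS with 1% BSA, 5 mM HEPES, 1 mM IBMX, pH 7.4. Cells EtOH-extracted, lysed, and intracellular cAMP measured by AlphaScreen.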

[3] = glucose uptake in differentiated L6-myotubes, compound at 10 μM, activity relative to isoproterenol at 10 μM
[4] = intracellular cAMP in differentiated L6-myotubes, compound at 10 μM, activity relative to isoproterenol at 10 μM
[5] = glucose uptake, compound at 10 μM relative to isoproterenol at 10 μM
[6] = intracellular cAMP, compound at 10 μM relative to isoproterenol at 10 μM

Compound: CCCS(=O)(=O)N[C@H]1CC[C@@H](CC(C)(C)NC[C@H](O)c2cncc(F)c2)CC1 [Compound 523, (R)-2-{1,1-dimethyl-2-[(1s,4S)-4-(propylsulfonylamino)cyclohexyl]ethylamino}-1-(5-fluoro-3-pyridyl)-1-ethanol]
- Emax at 10 µM (L6-myotubes [1]; [3]): 50 to 75%
- Emax at 10 µM (L6-myotubes [2]; [4]): < 25%

Compound: CO[C@H]1CC[C@H](CNC[C@H](O)c2cncc(F)c2)CC1 [Compound 229, (R)-1-(5-fluoro-3-pyridyl)-2-({[(1r,4R)-4-methoxycyclohexyl]methyl}amino)-1-ethanol]
- Emax at 10 µM (L6-myotubes [1]; [3]): 50 to 75%
- Emax at 10 µM (L6-myotubes [2]; [4]): < 25%

Compound: COC(=O)[C@H]1CC[C@H](CC(C)(C)NC[C@H](O)c2cncc(F)c2)CC1 [Compound 354, methyl (1R,4r)-4-{2-[(R)-2-(5-fluoro-3-pyridyl)-2-hydroxyethylamino]-2-methylpropyl} cyclohexanecarboxylate]
- Emax at 10 µM (L6-myotubes [1]; [3]): 50 to 75%
- Emax at 10 µM (L6-myotubes [2]; [4]): < 25%

Compound: CO[C@H]1CC[C@H](CCNC[C@H](O)c2cncc(F)c2)CC1 [Compound 225, (R)-1-(5-fluoro-3-pyridyl)-2-{2-[(1r,4R)-4-methoxycyclohexyl]ethylamino}-1-ethanol]
- Emax at 10 µM (L6-myotubes [1]; [3]): 50 to 75%
- Emax at 10 µM (L6-myotubes [2]; [4]): < 25%

Compound: COC(=O)[C@H]1CC[C@H](CC(C)(C)NC[C@H](O)c2cccc(F)c2)CC1 [Compound 353, methyl (1R,4r)-4-{2-[(R)-2-(m-fluorophenyl)-2-hydroxyethylamino]-2-methylpropyl} cyclohexanecarboxylate]
- Emax at 10 µM (L6-myotubes [1]; [3]): > 75%
- Emax at 10 µM (L6-myotubes [2]; [4]): < 25%

Compound: CCCC1(CCC)CC[C@H]([C@H](O)c2cccc(F)c2)N1 [Compound 159]
- Emax at 10 µM (L6-myotubes [1]; [5]): 50 to 75%
- Emax at 10 µM (L6-myotubes [2]; [6]): < 25%

Compound: CC1(C)CCC[C@@H]([C@@H](O)c2cccc(F)c2)N1 [Compound 191]
- Emax at 10 µM (L6-myotubes [1]; [5]): 25 to 50%
- Emax at 10 µM (L6-myotubes [2]; [6]): < 25%

Compound: O[C@@H](CNC[C@H]1CC[C@@H](O)CC1)c1cccc(F)c1 [Compound 268, (R)-1-(m-fluorophenyl)-2-({[(1s,4S)-4-hydroxycyclohexyl]methyl}amino)-1-ethanol]
- Emax at 10 µM (L6-myotubes [1]; [3]): 25 to 50%
- Emax at 10 µM (L6-myotubes [2]; [4]): < 25%

Compound: CNS(=O)(=O)[C@H]1CC[C@H](CC(C)(C)NC[C@H](O)c2cncc(F)c2)CC1 [Compound 478, (R)-2-{1,1-dimethyl-2-[(1r,4R)-4-(methylaminosulfonyl)cyclohexyl]ethylamino}-1-(5-fluoro-3-pyridyl)-1-ethanol]
- Emax at 10 µM (L6-myotubes [1]; [3]): 25 to 50%
- Emax at 10 µM (L6-myotubes [2]; [4]): < 25%

Compound: CC(C)(NC[C@H](O)c1cccc(F)c1)[C@H]1CC[C@H](C(=O)O)CC1 [Compound 368, (1R,4r)-8-[(R)-2-(m-fluorophenyl)-2-hydroxyethylamino]-7-hydroxy-p-menthan-7-one]
- Emax at 10 µM (L6-myotubes [1]; [3]): 25 to 50%
- Emax at 10 µM (L6-myotubes [2]; [4]): < 25%

Compound: CC(C)(C[C@H]1CC[C@H](NS(C)(=O)=O)CC1)NC[C@H](O)c1cccc(F)c1 [Compound 382]
- Emax at 10 µM (L6-myotubes [1]; [3]): > 75%
- Emax at 10 µM (L6-myotubes [2]; [4]): 25 to 50%

Compound: CC(C)(C[C@H]1CC[C@@H](N)CC1)NC[C@H](O)c1cccc(C#N)n1 [Compound 418, 6-[(S)-2-{1,1-dimethyl-2-[(1s,4R)-4-aminocyclohexyl]ethylamino}-1-hydroxyethyl]-2-pyridinecarbonitrile]
- Emax at 10 µM (L6-myotubes [1]; [3]): 50 to 75%
- Emax at 10 µM (L6-myotubes [2]; [4]): < 25%

Compound: O[C@H](c1cccc(F)c1)[C@H]1CC[C@H](Cc2ccc(Cl)cc2)N1 [Compound 393, (R)-{(2R,5R)-5-[(p-chlorophenyl)methyl]-2-pyrrolidinyl}(m-fluorophenyl)methanol]
- Emax at 10 µM (L6-myotubes [1]; [3]): > 75%
- Emax at 10 µM (L6-myotubes [2]; [4]): < 25%

Compound: O[C@@H](CNC[C@H]1CC[C@H](O)CC1)c1cncc(F)c1 [Compound 274, (R)-1-(5-fluoro-3-pyridyl)-2-({[(1r,4R)-4-hydroxycyclohexyl]methyl}amino)-1-ethanol]
- Emax at 10 µM (L6-myotubes [1]; [3]): < 25%
- Emax at 10 µM (L6-myotubes [2]; [4]): < 25%

Compound: CCOC(=O)CO[C@H]1CC[C@H](C(C)(C)NC[C@H](O)c2cccc(F)c2)CC1 [Compound 398, ethyl[[(1R,4r)-4-{1-[(R)-2-(m-fluorophenyl)-2-hydroxyethylamino]-1-methylethyl}cyclohexyloxy]]acetate]
- Emax at 10 µM (L6-myotubes [1]; [3]): > 75%
- Emax at 10 µM (L6-myotubes [2]; [4]): < 25%

Compound: CS(=O)(=O)N(Cc1ccccc1)c1cccc(CC23CCC([C@H](O)c4cccc(F)c4)(CC2)N3)c1 [Compound 513]
- Emax at 10 µM (L6-myotubes [1]; [3]): 25 to 50%
- Emax at 10 µM (L6-myotubes [2]; [4]): < 25%

Compound: CC(C)(C[C@H]1CC[C@@H](N)CC1)NC[C@@H](O)c1cccc(C#N)n1 [Compound 416]
- Emax at 10 µM (L6-myotubes [1]; [3]): 50 to 75%
- Emax at 10 µM (L6-myotubes [2]; [4]): < 25%

Compound: CC(C)(CC[C@H]1CC[C@H](N)CC1)NC[C@H](O)c1cncc(F)c1 [Compound 358]
- Emax at 10 µM (L6-myotubes [1]; [3]): 25 to 50%
- Emax at 10 µM (L6-myotubes [2]; [4]): < 25%

Compound: CNS(=O)(=O)[C@H]1CC[C@@H](CC(C)(C)NC[C@H](O)c2cccc(F)c2)CC1 [Compound 477, (R)-2-{1,1-dimethyl-2-[(1s,4S)-4-(methylaminosulfonyl)cyclohexyl]ethylamino}-1-(m-fluorophenyl)-1-ethanol]
- Emax at 10 µM (L6-myotubes [1]; [3]): 50 to 75%
- Emax at 10 µM (L6-myotubes [2]; [4]): < 25%

Compound: CC1(C)CC[C@H]([C@@H](O)c2cccc(F)c2)N1 [Compound 109, (S)-[(R)-5,5-dimethyl-2-pyrrolidinyl](m-fluorophenyl)methanol]
- Emax at 10 µM (L6-myotubes [1]; [5]): 25 to 50%
- Emax at 10 µM (L6-myotubes [2]; [6]): < 25%

Compound: CC1(C)CCC[C@H]([C@@H](O)c2ccccc2Cl)N1 [Compound 163, (S)-[(R)-6,6-dimethyl-2-piperidyl](o-chlorophenyl)methanol]
- Emax at 10 µM (L6-myotubes [1]; [5]): > 75%
- Emax at 10 µM (L6-myotubes [2]; [6]): < 25%

Compound: O[C@H](c1cccc(F)c1)C12CCC(COCc3ccc(Cl)cc3)(CC1)N2 [Compound 396, (R)-(4-{[(p-chlorophenyl)methoxy]methyl}-7-azabicyclo[[2.2.1]]hept-1-yl)(m-fluorophenyl)methanol]
- Emax at 10 µM (L6-myotubes [1]; [3]): > 75%
- Emax at 10 µM (L6-myotubes [2]; [4]): < 25%

Compound: O[C@@H](c1cncc(F)c1)[C@H]1CC[C@@H](Cc2ccc(Cl)cc2)N1 [Compound 403, (S)-{(2R,5S)-5-[(p-chlorophenyl)methyl]-2-pyrrolidinyl}(5-fluoro-3-pyridyl)methanol]
- Emax at 10 µM (L6-myotubes [1]; [3]): 50 to 75%
- Emax at 10 µM (L6-myotubes [2]; [4]): < 25%

Compound: CN([C@H]1CC[C@@H](CC(C)(C)NC[C@H](O)c2cncc(F)c2)CC1)S(C)(=O)=O [Compound 520]
- Emax at 10 µM (L6-myotubes [1]; [3]): 50 to 75%
- Emax at 10 µM (L6-myotubes [2]; [4]): < 25%

Compound: CCCCNCC(O)c1cccnc1 (stereo not drawn) [Compound 49, 2-(butylamino)-1-(3-pyridyl)-1-ethanol]
- Emax at 10 µM (L6-myotubes [1]; [5]): 50 to 75%
- Emax at 10 µM (L6-myotubes [2]; [6]): < 25%

Compound: CC(C)(CC[C@H]1CC[C@H](C(=O)O)CC1)NC[C@H](O)c1cccc(F)c1 [Compound 348, (1R,4r)-4-{3-[(R)-2-(m-fluorophenyl)-2-hydroxyethylamino]-3-methylbutyl} cyclohexanecarboxylic acid]
- Emax at 10 µM (L6-myotubes [1]; [3]): < 25%
- Emax at 10 µM (L6-myotubes [2]; [4]): < 25%

Compound: CC1(C)CC[C@@H]([C@H](O)c2cccc(F)c2)N1 [Compound 144]
- Emax at 10 µM (L6-myotubes [1]; [5]): < 25%
- Emax at 10 µM (L6-myotubes [2]; [6]): < 25%

Compound: CC1(C)CCC[C@H]([C@H](O)c2ccccc2F)N1 [Compound 177, (R)-[(R)-6,6-dimethyl-2-piperidyl](o-fluorophenyl)methanol]
- Emax at 10 µM (L6-myotubes [1]; [5]): 50 to 75%
- Emax at 10 µM (L6-myotubes [2]; [6]): < 25%

Compound: CC(C)(C)NC[C@H](O)c1ccncc1F [Compound 108, (R)-2-(tert-butylamino)-1-(3-fluoro-4-pyridyl)-1-ethanol]
- Emax at 10 µM (L6-myotubes [1]; [5]): 25 to 50%
- Emax at 10 µM (L6-myotubes [2]; [6]): < 25%

Compound: CC(C)(C[C@H]1CC[C@@H](NC(=O)C(C)(C)C)CC1)NC[C@H](O)c1cncc(F)c1 [Compound 455]
- Emax at 10 µM (L6-myotubes [1]; [3]): 50 to 75%
- Emax at 10 µM (L6-myotubes [2]; [4]): < 25%
